Measurements reported in patent publication US11053468B2, “Multiwell cell culture system having rotating shafts for mixing culture media and method of use thereof” (The Johns Hopkins University, priority 2015, dated 2021).
Each block holds one molecule with its values, some of them ahead of it.

Experiments:
[1] = tested on: human developing cerebral cortex organoids; test: Toxin screening of BPA in the 12-well culture system, proliferation of neuronal precursor cells; format: cell-based; settings: different concentrations of BPA
Description: Culture conditions were systemically tested to optimize protocols. Additionally, screening was performed to test the effects of Bisphenol A (BPA) on neurogenesis in the organoid system.
Toxin screening was performed using the 12-well culture system. Images of the effect of different concentrations of BPA on human developing cerebral cortex organoids were taken (data not shown).

forebrain organoids [2] = test: Long-term BPA treatment of forebrain organoids (days 14 to 28), relative VZ thickness; format: cell-based, human; settings: treatment from days 14 to 28; forebrain organoids in SpinΩ
Description: (§1) The apparent homogeneity of forebrain organoids, small volume per condition, and multi-well format of SpinΩ comprise a platform that is amenable to chemical compound testing. As a proof of principle, we tested the effect of Bisphenol A (BPA), which is commonly found in household plastic products and is known to affect rodent neural development.
Forebrain organoids were grown using the protocol described above. For the long-term BPA treatment experiment, forebrain organoids at day 14 from the same batch were distributed randomly into separate wells within SpinQ and treated with different concentrations of BPA (Sigma). BPA was dissolved in sequential dilutions in differentiation media with 0.05% methanol, which was also added in the control condition. Media containing BPA was replaced every other day until analysis on day 28. […] Quantification was conducted by investigators blind to culture conditions.
Organoids grown from the “intrinsic protocol” and forebrain protocol were immunostained for SOX2, TUJ1 and CTIP2 at days 14 and 28. […] The length for VZ and outer layer was measured in ImageJ™ software. […] Relative thicknesses for VZ, SVZ and CP were calculated by the ratio to total thickness from ventricular to pial surface.

[3] = tested on: NPCs in forebrain organoids; test: Acute BPA treatment of forebrain organoids (24 hr), EdU pulse-labeling and PH3 immunostaining; format: cell-based, human; settings: acute treatment with higher BPA concentrations for 24 hr
Description: as §1
For the acute BPA treatment experiment, forebrain organoids were grown to day 28 and treated with corresponding concentrations of BPA for 24 hr. At day 29, the culture media was replaced with fresh media and washed 3 times to remove residual BPA. Organoids were then pulsed with 10 μM EdU for 2 hr. The media was then replaced and organoids were washed 3 times with fresh media. At day 30, organoids were fixed for immunohistochemistry and EdU detection using Click-iT® EdU Alexa Fluor® 488 Imaging Kit (ThermoFisher C10337) according to the manufacturer's manual, followed by immunostaining for SOX2 and PH3. Images were acquired with a Zeiss' LSM 700 Confocal system at 25× magnification. Quantification was performed by counting the number of EdU and PH3+ nuclei within SOX2+ ventricular structures that were defined by neural tube-like morphology. EdU and PH3 densities were normalized to the area of ventricular structures measured in ImageJ software. Quantification was conducted by investigators blind to culture conditions.

forebrain organoids [4] = test: Signaling-molecule treatment of embryoid bodies during the Matrigel stage, activated caspase-3 (CAS3) immunostaining; format: cell-based, human; settings: for number of CAS3+ cells at day 14: combined treatment with the three factors CHIR99021, WNT3A and SB-431542 during the Matrigel stage
Excerpt: To reduce tissue heterogeneity, we pre-patterned embryoid bodies to the fate of a specific brain region. We first treated human iPSCs with dual SMAD inhibitors (dorsomorphin and A-83) for 7 days and then embedded embryoid bodies in Matrigel for another 7 days, followed by Matrigel removal and spinning in SpinΩ (FIG. 12). Compared to the “intrinsic protocol,” we could reliably generate organoids from multiple iPSC lines with reduced heterogeneity in organoid shape and size (data not shown). However, there was significant cell death within organoids, as shown by activated caspase-3 (CAS3) immune-staining (data not shown). We then tested combinations of different signaling molecules for various durations. […] Later, we determined that the WNT3A contribution was minimal, likely because WNT3A and CHIR99021 activate the same downstream signaling pathway (data not shown). At day 14, well-defined polarized neuroepithelium-like structures resembled neural tubes, with a nearly pure population of NESTIN+SOX2+ NPCs and expression of adherent junction markers (b-CATENIN and PKC1) and proliferation marker phosphohistone H3 (PH3) near the ventricular surface (data not shown). […] Upon spinning in SpinΩ, organoids developed into multi-layer stratified structures, composed of SOX2+NPCs, TBR2+ intermediate progenitor cells (IPCs), and CTIP2+ neurons (data not shown). With a small volume, it became affordable to supplement media with growth factors at later stages (data not shown).
To generate forebrain-specific organoids, human iPSC colonies were detached 7 days after passage with Collagenase Type IV, washed with fresh stem cell medium and cultured in a 15 ml conical tube. On day 1, detached and washed iPSC colonies were transferred to an Ultra-Low attachment 6-well plate (Corning Costar), containing 3 ml of stem cell medium (without FGF-2), plus 2 μM Dorsomorphine (Sigma) and 2 μM A83-01 (Tocris). On days 5-6, half of the medium was replaced with induction medium consisting of DMEM:F12, 1×N2 Supplement (Invitrogen), 10 μg/ml Heparin (Sigma), 1× Penicillin/Streptomycin, 1× Non-essential Amino Acids, 1× Glutamax, 4 ng/ml WNT-3A (R&D Systems), 1 μM CHIR99021 (Cellagentech), and 1 μM SB-431542 (Cellagentech). On day 7, organoids were embedded in Matrigel (BD Biosciences) and continued to grow in induction medium for 6 more days. On day 14, embedded organoids were mechanically dissociated from Matrigel by pipetting up and down onto the plate with a 5 ml pipette tip. Typically, 10-20 organoids were transferred to each well of a 12-well spinning bioreactor (FIGS. 1-11) containing differentiation medium, consisting of DMEM:F12, 1×N2 and B27 Supplements (Invitrogen), 1× Penicillin/Streptomycin, 1×2-Mercaptoenthanol, 1× Non-essential Amino Acids, 2.5 μg/ml Insulin (Sigma). […]

- relative VZ thickness at day 28 (forebrain organoids [2]): dose-dependent decrease
- density of PH3+ NPCs [3]: decreased density
- density of EdU+ NPCs ([3]; then EdU pulse): decreased density
Molecule: CC(C)(c1ccc(O)cc1)c1ccc(O)cc1 [BPA, Bisphenol A]
- proliferation rate of neuronal precursor cells in human organoids [1]: dose-dependent effect

Molecule: Cc1c[nH]c(-c2cnc(NCCNc3ccc(C#N)cn3)nc2-c2ccc(Cl)cc2Cl)n1 [CHIR99021]
- number of CAS3+ cells at day 14 (forebrain organoids [4]): drastically reduced

Molecule: NC(=O)c1ccc(-c2nc(-c3ccc4c(c3)OCO4)c(-c3ccccn3)[nH]2)cc1 [SB-431542]
- number of CAS3+ cells at day 14 (forebrain organoids [4]): drastically reduced

B1: WNT3A: recombinant WNT3A protein (protein, UniProt P56704 19-352, looked up)
Protein Wnt-3a: SYPIWWSLAVGPQYSSLGSQPILCASIPGLVPKQLRFCRNYVEIMPSVAEGIKIGIQECQHQFRGRRWNCTTVHDSLAIFGPVLDKATRESAFVHAIASAGVAFAVTRSCAEGTAAICGCSSRHQGSPGKGWKWGGCSEDIEFGGMVSREFADARENRPDARSAMNRHNNEAGRQAIASHMHLKCKCHGLSGSCEVKTCWWSQPDFRAIGDFLKDKYDSASEMVVEKHRESRGWVETLRPRYTYFKVPTERDLVYYEASPNFCEPNPETGSFGTRDRTCNVSSHGIDGCDLLCCGRGHNARAERRREKCRCVFHWCCYVSCQECTRVYDVHTCK
- number of CAS3+ cells at day 14 (forebrain organoids [4]): drastically reduced
- contribution to the reduction of CAS3+ cells (forebrain organoids [4]; within the three-factor treatment, WNT3A and CHIR99021 activate the same downstream pathway): minimal
